Earlier results in patent US20040167415A1, “Method and system for prevention of radiocontrast nephropathy” (PLC Systems Inc., priority 2003, published 2004).

Columns and labels:
[1] = 70 kg adult patient; according to the manufacturer Nycomed Amersham
[2] = in 12 hours; healthy people; Edelson et al, J Pharm Sci 1984

## CC(=O)N(CC(O)CO)c1c(I)c(C(=O)NCC(O)CO)c(I)c(C(=O)NCC(O)CO)c1I (centres unmarked) [iohexol]
[1]
  total volume of distribution: approximately 18 liters
[2]
  contrast eliminated from the body in urine by kidneys: 90%
